“And” between values parts separate entries of the source, which are not always exact repeats. Identical values can stand only once. Like-named read-outs stand apart in the source and are kept apart here.
Tested on: HEK293 cells
Settings: for D/L ratio of expression intensity: 132 mM; for Effect of enhancement compared among the sugars: monosaccharides 100 or 200 mM; for GFP intensity: Exp 2, AAV3B 6×10^7 vg/well, iso-osmotic additives: sucrose 125.0, glucose 132.3, mannitol 132.3, NaCl 71.5 mM
Procedure: As the first procedure, 4 methods of the addition were carried out, including adding sucrose immediately (5 minutes or less) after the administration of the AAV vector, and the administration of the AAV vector immediately (5 minutes or less) after, 10 minutes after or 1 hour after adding sucrose to cells.
In the same manner as the above-described procedure, the GFP expression level was measured 3 days later.
In the same manner as the above-described procedures, the GFP expression level was measured 3 days later.
AAV3B-CMV-AcGFP was mixed in advance with sucrose at each of various concentrations, and the mixture was allowed to stand at room temperature for 1 hour followed by administration to cells. […] In order to prevent cell damage due to a buffer at the time of dilution of sucrose, medium replacement was carried out using a sucrose solution having the same concentration that was prepared by the medium 3 hours after the administration.

[1] = Exp 5, AAV3B 1×10^8 vg/well premixed 1 h, glucose 132 mM final, Day 1
[2] = Exp 5, AAV3B 1×10^8 vg/well premixed 1 h, glucose 132 mM final, Day 2
[3] = Exp 5, AAV3B 1×10^8 vg/well premixed 1 h, glucose 132 mM final, Day 3
[4] = Exp 9, monosaccharide 100 mM, 3 days
[5] = Exp 9, monosaccharide 100 mM, AAV3B 1×10^8 vg/well premixed 1 h, 3 days
[6] = Exp 9, monosaccharide 200 mM, 3 days
[7] = Exp 9, monosaccharide 200 mM, AAV3B 1×10^8 vg/well premixed 1 h, 3 days
[8] = Exp 8, disaccharide 100 mM in medium, AAV3B 1×10^8 vg/well, Day 3
[9] = Exp 8, disaccharide 100 mM, Day 3
[10] = Exp 8, disaccharide 125 mM in medium, AAV3B 1×10^8 vg/well, Day 3
[11] = Exp 8, disaccharide 125 mM, Day 3
[12] = Exp 8, disaccharide 150 mM in medium, AAV3B 1×10^8 vg/well, Day 3
[13] = Exp 8, disaccharide 150 mM, AAV3B 1×10^8 vg/well, Day 1
[14] = Exp 8, disaccharide 150 mM, AAV3B 1×10^8 vg/well, Day 2
[15] = Exp 8, disaccharide 150 mM, AAV3B 1×10^8 vg/well, Day 6
[16] = Exp 8, disaccharide 150 mM, Day 3

## O=C[C@H](O)[C@@H](O)[C@H](O)[C@H](O)CO [D-Glucose, D-glucose]
Exp 5, Day 1
  D/L ratio of expression intensity: 1.5 times
Exp 5, Day 2
  D/L ratio of expression intensity: 1.8
Exp 5, Day 3
  D/L ratio of expression intensity: 2.1 times
[1]
  Fluorescence Intensity: 161.0
[2]
  Fluorescence Intensity: 1232.5
[3]
  Fluorescence Intensity: 2966.3

## O=C(CO)[C@@H](O)[C@H](O)[C@H](O)CO [Fructose, fructose]
[4]
  Relativeness (vs (−)): 2.7
[5]
  Fluorescence Intensity: 402.0
[6]
  Relativeness (vs (−)): 16.2 times
[7]
  Fluorescence Intensity: 2378.5
Exp 9, 3 days
  Effect of enhancement compared among the sugars: comparable to that of sucrose

## O=C[C@H](O)[C@@H](O)[C@@H](O)[C@H](O)CO [Galactose, galactose]
[4]
  Relativeness (vs (−)): 1.3
[5]
  Fluorescence Intensity: 189.5
[6]
  Relativeness (vs (−)): 4.0 times
[7]
  Fluorescence Intensity: 583.5
Exp 9, 3 days
  Effect of enhancement compared among the sugars: lower than those of the other sugars

## O=C[C@@H](O)[C@H](O)[C@@H](O)[C@@H](O)CO [L-Glucose, L-glucose, reference compound]
[1]
  Fluorescence Intensity: 104.7
[2]
  Fluorescence Intensity: 669.2
[3]
  Fluorescence Intensity: 1397.7
Exp 5, glucose 132 mM final, Day 1
  Relativeness (vs Glucose(−)): 11 times and 11.0 times

## OC[C@H]1O[C@@H](O[C@H]2[C@H](O)[C@@H](O)C(O)O[C@@H]2CO)[C@H](O)[C@@H](O)[C@H]1O (some centres unmarked) [Lactose, lactose]
[8]
  Fluorescence Intensity: 1189.0
[9]
  Relativeness (vs No Sugar): 2.0
[10]
  Fluorescence Intensity: 1880.3
[11]
  Relativeness (vs No Sugar): 3.1
[12]
  Fluorescence Intensity: 3606.8
[13]
  Fluorescence Intensity: 503.2
[14]
  Fluorescence Intensity: 2097.0
[15]
  Fluorescence Intensity: 10798.2

## OC[C@H]1O[C@H](O[C@H]2[C@H](O)[C@@H](O)[C@H](O)O[C@@H]2CO)[C@H](O)[C@@H](O)[C@@H]1O [Maltose, maltose]
[8]
  Fluorescence Intensity: 1158.0
[9]
  Relativeness (vs No Sugar): 1.9
[10]
  Fluorescence Intensity: 1833.5
[11]
  Relativeness (vs No Sugar): 3.0
[12]
  Fluorescence Intensity: 3281.8
[13]
  Fluorescence Intensity: 532.7
[14]
  Fluorescence Intensity: 2009.0
[16]
  Relativeness (vs No Sugar): 5.4

## OC[C@@H](O)[C@@H](O)[C@H](O)[C@H](O)CO [Mannitol, mannitol, reference compound]
3 days
  GFP intensity: 342.8

## [Cl-].[Na+] [NaCl, reference compound]
3 days
  GFP intensity: 2.5

## OC[C@H]1O[C@H](O[C@H]2O[C@H](CO)[C@@H](O)[C@H](O)[C@H]2O)[C@H](O)[C@@H](O)[C@@H]1O [Trehalose, trehalose]
[8]
  Fluorescence Intensity: 995.7
[9]
  Relativeness (vs No Sugar): 1.6
[10]
  Fluorescence Intensity: 1249.0
[11]
  Relativeness (vs No Sugar): 2.1
[12]
  Fluorescence Intensity: 1903.7
[13]
  Fluorescence Intensity: 230.7
[14]
  Fluorescence Intensity: 949.8
[15]
  Fluorescence Intensity: 6490.7
[16]
  Relativeness (vs No Sugar): 3.1
